For assay [1], the target named is T1, human glucocorticoid receptor (Homo sapiens, UniProt P04150).
T1 construct: purified human recombinant full-length glucocorticoid receptor (2 nM); purchased Invitrogen Part # 2893
T1 sequence (P04150 1-777): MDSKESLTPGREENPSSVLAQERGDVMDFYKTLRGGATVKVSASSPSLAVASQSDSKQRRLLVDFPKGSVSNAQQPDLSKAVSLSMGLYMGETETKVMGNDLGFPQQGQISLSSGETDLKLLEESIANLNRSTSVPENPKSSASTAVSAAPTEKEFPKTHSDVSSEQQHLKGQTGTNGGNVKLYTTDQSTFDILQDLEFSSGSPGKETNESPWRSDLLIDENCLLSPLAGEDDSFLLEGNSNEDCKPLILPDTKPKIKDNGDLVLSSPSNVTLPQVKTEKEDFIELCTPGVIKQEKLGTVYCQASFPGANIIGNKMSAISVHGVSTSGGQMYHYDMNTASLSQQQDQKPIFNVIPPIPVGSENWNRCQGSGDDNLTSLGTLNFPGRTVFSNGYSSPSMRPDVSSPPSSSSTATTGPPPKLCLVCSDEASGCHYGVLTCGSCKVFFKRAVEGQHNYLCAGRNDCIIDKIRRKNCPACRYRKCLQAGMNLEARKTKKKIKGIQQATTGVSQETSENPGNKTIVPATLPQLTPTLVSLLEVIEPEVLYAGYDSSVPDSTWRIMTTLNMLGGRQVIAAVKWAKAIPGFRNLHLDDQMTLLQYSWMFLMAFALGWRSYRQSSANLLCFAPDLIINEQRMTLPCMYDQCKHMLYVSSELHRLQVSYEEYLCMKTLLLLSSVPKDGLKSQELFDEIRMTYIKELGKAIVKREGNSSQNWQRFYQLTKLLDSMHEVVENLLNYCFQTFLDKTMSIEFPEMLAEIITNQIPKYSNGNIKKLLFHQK
Briefly: Glucocorticoid Receptor Binding Assay (I), fluorescence polarization competitor kit (Fluormone GS Red). Particulars: purified human recombinant full-length GR. As to the method: In order to assess the affinity of test compounds for the human glucocorticoid receptor, a commercially available kit was used (Glucocorticoid Receptor Competitor Assay Kit, Invitrogen Part # 2893). Briefly, purified human recombinant full-length glucocorticoid receptor (2 nM) was mixed with fluorescently labeled glucocorticoid (1 nM Fluormone GS Red) in the presence or absence of test compound. After two hour incubation at room temperature in the dark, the fluorescence polarization (FP) of the samples was measured. […] Test compounds were analyzed in the concentration range from 8.5E-05 μM to 5 μM.
In general terms: Fluorescence polarisation rises when a labelled molecule tumbles more slowly, as on binding a larger partner.

Assay [2] deals with AP-1 induced transcriptional activity. Kind of assay: Cellular Transrepressional Assay (AP-1 luciferase reporter in A549 cells, PMA-activated). The format is cell-based. Particulars: Homo sapiens, A549, 7 h, pAP-1-Luc, 10 ng/ml PMA, read-out: AP-1 (EC50, nM) (Cellular Transrepression Assay). As to the method: To measure the ability of test molecules to inhibit AP-1 induced transcriptional activity an A549 cell was utilized which was stably transfected with a plasmid containing 7×AP-1 DNA binding sites (pAP-1-Luc plasmid, Stratagene Co. La Jolla, Calif.) followed by the gene for luciferase. Cells were activated with 10 ng/ml of phorbol myristic acid (PMA) plus or minus test molecules for 7 hours. After 7 hours a luciferase reagent was added to measure luciferase enzymatic activity in the cell. After a 10 minute incubation of luciferase reagent with cells, luminescence was measured in a TopCount luminescence counter. Repression of AP-1 activity was calculated as the percentage decrease in the signal induced by PMA alone. Test molecules were analyzed in the concentration range from 0.1 nM to 40 μM. EC50s were determined by using standard curve fitting methods such as Excel fit (Microsoft Co.).
For orientation: Reporter assays use an easily measured gene product as a stand-in for the process of interest.

Each structure is given as a SMILES string.

In general, Ki refers to the dissociation constant of the complex between target and ligand, obtained from inhibition or displacement. For orientation: EC50 means the concentration that produces a half-maximal response. For the compound `CC(C)CC(c1ccc2c(cnn2-c2ccc(F)cc2)c1)C(C)(C)CNC(=O)OCC(C)(C)C` (stereo not drawn) [Example 62, neopentyl 3-(1-(4-fluorophenyl)-1H-indazol-5-yl)-2,2,5-trimethylhexylcarbamate], the Ki in assay [1] came to 11 nM. Besides, the EC50 in assay [2] is over 10000 nM.

In the case of `CC(C)CC(c1ccc2c(cnn2-c2ccc(F)cc2)c1)C(C)(C)CNS(=O)(=O)NC(C)(C)C` (stereo not drawn) [Example 63], the Ki in assay [1] was determined as 4.3 nM. For the same compound, in assay [2], the EC50 is over 10000 nM.

`CC(C)CC(c1ccc2c(cnn2-c2ccc(F)cc2)c1)C(C)(C)CNC(=O)NC(C)(C)c1ccnc(C(C)(C)C)c1` (stereo not drawn) [Example 64, 1-(2-(2-tert-butylpyridin-4-yl)propan-2-yl)-3-(3-(1-(4-fluorophenyl)-1H-indazol-5-yl)-2,2,5-trimethylhexyl)urea]: the Ki in assay [1] is 17 nM. The EC50 in assay [2] is over 10000 nM.

On to `CC(C)CC(c1ccc2c(cnn2-c2ccc(F)cc2)c1)C(C)(C)CNC(=O)CC(C)(C)C` (stereo not drawn) [Example 66, N-(3-(1-(4-fluorophenyl)-1H-indazol-5-yl)-2,2,5-trimethylhexyl)-3,3-dimethylbutanamide], for which the Ki in assay [1] worked out at 3 nM. Also, the EC50 in assay [2] is 177 nM.

As for `CC(C)CC(c1ccc2c(cnn2-c2ccc(F)cc2)c1)C(C)(C)CNC(=O)C(=O)C(C)(C)C` (stereo not drawn) [Example 67, N-(3-(1-(4-fluorophenyl)-1H-indazol-5-yl)-2,2,5-trimethylhexyl)-3,3-dimethyl-2-oxobutanamide], the Ki in assay [1] was 5.6 nM. Also, the EC50 in assay [2] worked out at 164 nM.

On to `CC(C)CC(c1ccc2c(cnn2-c2ccc(F)cc2)c1)C(C)(C)CNC(=O)CC(C)(C)c1ccc(Cl)cc1` (stereo not drawn) [Example 68, 3-(4-chlorophenyl)-N-(3-(1-(4-fluorophenyl)-1H-indazol-5-yl)-2,2,5-trimethylhexyl)-3-methylbutanamide], for which, in assay [1], the Ki turned out to be 8.1 nM. In addition, the EC50 in assay [2] amounted to 271 nM.

Consider `CC(C)CC(c1ccc2[nH]ncc2c1)C(C)(C)CNC(=O)NC(C)(C)C` (stereo not drawn) [Example 70, 1-(3-(1H-indazol-5-yl)-2,2,5-trimethylhexyl)-3-tert-butylurea], for which the Ki in assay [1] came to 44 nM. The EC50 in assay [2] is over 10000 nM.

For the compound `CC(C)CC(c1ccc2c(cnn2-c2ccc(F)cc2)c1)C(C)(C)CNC(=O)N[C@H]1CCc2ccccc21` (stereo partly drawn) [Example 71A, 1-((S)-2,3-dihydro-1H-inden-1-yl)-3-(3-(1-(4-fluorophenyl)-1H-indazol-5-yl)-2,2,5-trimethylhexyl)urea], the Ki in assay [1] was 5.8 nM. Besides, the EC50 in assay [2] was 194 nM.

Consider `CC(C)CC(c1ccc2c(cnn2-c2ccc(F)cc2)c1)C(C)(C)CNC(=O)N[C@@H]1CCc2ccccc21` (stereo partly drawn) [Example 71B, 1-((R)-2,3-dihydro-1H-inden-1-yl)-3-(3-(1-(4-fluorophenyl)-1H-indazol-5-yl)-2,2,5-trimethylhexyl)urea], for which, in assay [1], the Ki stood at 6.5 nM. The EC50 in assay [2] was found to be 511 nM.

In the case of `CC(C)CC(c1ccc2c(cnn2-c2ccc(F)cc2)c1)C(C)(C)CNC(=O)NC(c1ccccc1)c1ccccc1` (stereo not drawn) [Example 73, 1-benzhydryl-3-(3-(1-(4-fluorophenyl)-1H-indazol-5-yl)-2,2,5-trimethylhexyl)urea], the Ki in assay [1] was determined as 13 nM. Also, the EC50 in assay [2] turned out to be 107 nM.

As to `CC(C)CC(c1ccc2c(cnn2-c2ccc(F)cc2)c1)C(C)(C)CNC(=O)NC1CCC(C(C)(C)C)CC1` (stereo not drawn) [Example 74, 1-(4-tert-butylcyclohexyl)-3-(3-(1-(4-fluorophenyl)-1H-indazol-5-yl)-2,2,5-trimethylhexyl)urea], the Ki in assay [1] amounted to 26 nM. Besides, the EC50 in assay [2] was over 10000 nM.

Consider `CC(C)CC(c1ccc2c(cnn2-c2ccc(F)cc2)c1)C(C)(C)CNC(=O)N[C@H](C)c1cccc2ccccc12` (stereo partly drawn) [Example 75, 1-(3-(1-(4-fluorophenyl)-1H-indazol-5-yl)-2,2,5-trimethylhexyl)-3-((R)-1-(naphthalene-1-yl)ethyl)urea], for which the Ki in assay [1] is 8.9 nM. Besides, the EC50 in assay [2] is 628 nM.

Take `CC(C)CC(c1ccc2c(cnn2-c2ccc(F)cc2)c1)C(C)(C)CNC(=O)N[C@@H](C)c1cccc2ccccc12` (stereo partly drawn) [Example 76, 1-(3-(1-(4-fluorophenyl)-1H-indazol-5-yl)-2,2,5-trimethylhexyl)-3-((S)-1-(naphthalene-1-yl)ethyl)urea]: the Ki in assay [1] is 8.7 nM. Further, the EC50 in assay [2] was over 10000 nM.

With `CC(C)CC(c1ccc2c(cnn2-c2ccc(F)cc2)c1)C(C)(C)CNC(=O)N[C@@H](C)C(C)(C)C` (stereo partly drawn) [Example 77, 1-((S)-3,3-dimethylbutan-2-yl)-3-(3-(1-(4-fluorophenyl)-1H-indazol-5-yl)-2,2,5-trimethylhexyl)urea], in assay [1], the Ki was 7.4 nM. Further, the EC50 in assay [2] is 143 nM.

Take `CC(C)CC(c1ccc2c(cnn2-c2ccc(F)cc2)c1)C(C)(C)CNC(=O)N[C@@H]1c2ccccc2C[C@@H]1O` (stereo partly drawn) [Example 78, 1-(3-(1-(4-fluorophenyl)-1H-indazol-5-yl)-2,2,5-trimethylhexyl)-3-((1R,2S)-2-hydroxy-2,3-dihydro-1H-inden-1-yl)urea]: in assay [1], the Ki came to 2.2 nM. For the same compound, the 50% effective concentration (EC50) in assay [2] was determined as 813 nM.

Consider `CC(C)CC(c1ccc2c(cnn2-c2ccc(F)cc2)c1)C(C)(C)CNC(=O)NC1CCN(Cc2ccccc2)CC1` (stereo not drawn) [Example 79, 1-(1-benzylpiperidin-4-yl)-3-(3-(1-(4-fluorophenyl)-1H-indazol-5-yl)-2,2,5-trimethylhexyl)urea], for which the Ki in assay [1] was found to be 11 nM. For the same compound, the half-maximal effective concentration (EC50) in assay [2] came out at 5000 nM.

For the compound `CC(C)CC(c1ccc2c(cnn2-c2ccc(F)cc2)c1)C(C)(C)CNC(=O)NC(CO)Cc1ccc(Cl)cc1` (stereo not drawn) [Example 80, 1-(1-(4-chlorophenyl)-3-hydroxypropan-2-yl)-3-(3-(1-(4-fluorophenyl)-1H-indazol-5-yl)-2,2,5-trimethylhexyl)urea], the Ki in assay [1] is 3 nM. For the same compound, the EC50 in assay [2] came to 234 nM.

On to `Cc1cc(C)c(S(=O)(=O)NCC(C)(C)C(CC(C)C)c2ccc3c(cnn3-c3ccc(F)cc3)c2)c(C)c1` (stereo not drawn) [Example 81, N-(3-(1-(4-fluorophenyl)-1H-indazol-5-yl)-2,2,5-trimethylhexyl)-2,4,6-trimethylbenzenesulfonamide], for which the Ki in assay [1] was 8.7 nM. Moreover, the EC50 in assay [2] was over 5000 nM.

Regarding `CC(CNS(C)(=O)=O)C(c1ccccc1)c1ccc2c(cnn2-c2ccc(F)cc2)c1` (stereo not drawn) [Example 92, N-(3-(1-(4-fluorophenyl)-1H-indazol-5-yl)-2-methyl-3-phenylpropyl)methanesulfonamide], the Ki in assay [1] came to 0.94 nM. Besides, in assay [2], the EC50 was 12 nM.

On to `CCS(=O)(=O)NCC(C)C(c1ccccc1)c1ccc2c(cnn2-c2ccc(F)cc2)c1` (stereo not drawn) [Example 93, N-(3-(1-(4-fluorophenyl)-1H-indazol-5-yl)-2-methyl-3-phenylpropyl)ethanesulfonamide], for which the Ki in assay [1] is 0.92 nM. Besides, in assay [2], the EC50 came out at 5.6 nM.

Consider `CC(CNS(=O)(=O)C(C)C)C(c1ccccc1)c1ccc2c(cnn2-c2ccc(F)cc2)c1` (stereo not drawn) [Example 94, N-(3-(1-(4-fluorophenyl)-1H-indazol-5-yl)-2-methyl-3-phenylpropyl)propane-2-sulfonamide], for which, in assay [1], the Ki was found to be 0.73 nM. For the same compound, the EC50 in assay [2] came out at 12 nM.

For the compound `CCCS(=O)(=O)NCC(C)C(c1ccccc1)c1ccc2c(cnn2-c2ccc(F)cc2)c1` (stereo not drawn) [Example 95, N-(3-(1-(4-fluorophenyl)-1H-indazol-5-yl)-2-methyl-3-phenylpropyl)propane-1-sulfonamide], the Ki in assay [1] was found to be 1.2 nM. Also, the EC50 in assay [2] amounted to 27 nM.

Turning to `CC(CNS(=O)(=O)CCC(F)(F)F)C(c1ccccc1)c1ccc2c(cnn2-c2ccc(F)cc2)c1` (stereo not drawn) [Example 96, 3,3,3-trifluoro-N-(3-(1-(4-fluorophenyl)-1H-indazol-5-yl)-2-methyl-3-phenylpropyl)propane-1-sulfonamide], the Ki in assay [1] was found to be 1.6 nM. Further, the EC50 in assay [2] is 58 nM.

As to `CCC(CNS(=O)(=O)CC(F)(F)F)C(c1ccccc1)c1ccc2c(cnn2-c2ccc(F)cc2)c1` (stereo not drawn) [Example 98, 2,2,2-Trifluoro-N-(2-((1-(4-fluorophenyl)-1H-indazol-5-yl)(phenyl)methyl)butyl)ethanesulfonamide], the Ki in assay [1] amounted to 3.7 nM. Further, the EC50 in assay [2] was determined as 17 nM.
